Data: the METLIN SMRT retention time set (Domingo-Almenara et al. 2019)

Assay: gradient 5% acetonitrile 3 min, to 50% in 2 min, to 85% in 15 min, held 3 min, 100 µL/min
Settings: column: Zorbax Extend-C18 2.1 x 50 mm; eluents: water / acetonitrile, 0.1% formic acid
How it was run: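 The system's dead and dwell volumes were 40 μL and 900 μL, with a Zorbax Extend-C18 column (2.1 × 50 mm, 1.8 μm) run at 100 μL/min in water and acetonitrile containing 0.1% formic acid each. Pure standards were analyzed in mixtures of ~100 molecules by HPLC–quadrupole time-of-flight mass spectrometry in positive and negative ionization mode. Retention time was assigned from computationally picked, manually inspected adduct peaks.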

| Structure (SMILES) | RP-LC retention time |
| --- | --- |
| CCOc1ccc(-n2ccn3cc(-c4cc(OC)ccc4OC)nc3c2=O)cc1 | 895 s |
| Cn1cc(-c2cc3n(n2)CCC(=O)N3CC(=O)NCCN2CCOCC2)c2ccccc21 | 612 s |
| CCCCCCCCCC(=O)NC(CN1CCOCC1)[C@H](O)c1ccccc1 (some centres undefined) | 888 s |
| CC1CCCN(C(=O)c2cn(-c3cc(N4CCOCC4)ncn3)cn2)C1 (centres undefined) | 709 s |
| CCC(=O)NCc1nc2c(n1CC)CN(S(=O)(=O)c1ccc(C)c(C)c1)CC2 | 583 s |
| CCCc1cc(N2CCN(C(=O)c3cccs3)CC2)nc2nnc(C)n12 | 613 s |
| Cc1nn(C)c(=O)c2cc(S(=O)(=O)NCc3ccco3)cn12 | 718 s |
| CC(C)NC(=O)Cn1cnc2ccccc2c1=O | 609 s |
| O=C(NCc1ccccn1)c1ccc(=O)n(Cc2ccccc2)n1 | 573 s |
| O=C(NCc1cc(F)ccc1F)c1ccc2c(c1)nc1n2CCN(C2CCCCC2)C1=O | 830 s |
| CCCN1C(=O)c2cc(S(=O)(=O)NCC(C)C)ccc2Oc2cccnc21 | 1050 s |
| COc1ccc(-c2nc3sc(C(=O)N4CCOCC4)c(C)n3c2NC(C)(C)C)cc1 | 763 s |
| COc1cc(CNC(=O)c2c(N3CCCC3=O)c3cc(F)ccc3n2C)cc(OC)c1OC | 791 s |
| Fc1ccc(Br)cc1-c1nc2ccc(Cl)cn2c1Nc1ccc2c(c1)OCO2 | 945 s |
| Cn1cnc([N+](=O)[O-])c1S(=O)(=O)Oc1cccc2ccccc12 | 970 s |
| CCC(=O)N1CCc2c(C(=O)NCc3ccc(N4CCC(C)CC4)cc3)cccc21 | 640 s |
| O=C(CN1CCN(Cc2cccc(Cl)c2)C1=O)NCCc1cccs1 | 823 s |
| Cc1cc(=O)n(CC(=O)Nc2ccc(F)cc2Cl)c(N2CCCCC2)n1 | 718 s |
| Cn1nnc2c(N3CCN(S(=O)(=O)c4cccs4)CC3)ncnc21 | 726 s |
| CCCCOP(=O)(OCCCC)C1(C)CC(=O)CC(C)(C)C1 (centres undefined) | 1100 s |
| COCCC1CCN(C(=O)c2cc(F)ccc2F)CC1 | 749 s |
| Cc1ccc(N2CC(c3noc(-c4ccsc4)n3)CC2=O)cc1 (centres undefined) | 932 s |
| CCCCNC(=O)NC1CCS(=O)(=O)C1 (centres undefined) | 571 s |

| Structure (SMILES) | RP-LC retention time |
| --- | --- |
| CCOc1cccc(-c2noc(Cn3ncn4nc(-c5ccc(Br)cc5)cc4c3=O)n2)c1 | 1310 s |
| CC(C)N1C(=O)C(C)(C(=O)NC2CCCCCC2)Oc2cccnc21 (centres undefined) | 1080 s |
| CCS(=O)(=O)c1ncc(Cl)c(C(=O)Nc2ccc(Oc3ccccc3)cc2)n1 | 929 s |
| Cc1ccc(C)c(OCC(O)Cn2c(C3CC3)nc3ccccc32)c1 (centres undefined) | 731 s |
| Cc1ccn2c(NC(=O)c3cc(Br)ccc3Cl)c(-c3ccccc3)nc2c1 | 735 s |
| Cc1ccccc1-n1ccn(Cc2nc(-c3ccc(Cl)cc3)no2)c(=O)c1=O | 912 s |
| COc1ccc(Cn2nc3c(S(=O)(=O)N4CCc5ccccc5C4)cccn3c2=O)cc1F | 945 s |
| COc1cc(CSc2nc(CC(=O)Nc3nccs3)cs2)cc(OC)c1 | 819 s |
| O=C(c1ccc2ccccc2n1)N1CCN(C(=O)N2C[C@H]3C[C@H](C2)[C@H]2CCCC(=O)N2C3)CC1 | 650 s |
| CN1CCC(N2CCN(c3ncccc3-c3nnc(-c4ccc(Cl)cc4)o3)CC2)CC1 | 586 s |
| O=C(Nc1ccc(N2CCN(C3CCCC3)C2=O)nc1)c1cccc(F)c1 | 876 s |
| CC(=O)N1CCCSc2ccc(S(=O)(=O)N3CCCC(CN4CCc5ccccc5C4)C3)cc21 (centres undefined) | 687 s |
| O=C(NCc1cccs1)C1CCN(C(=O)C2Sc3ccccc3NC2=O)CC1 (centres undefined) | 714 s |
| COc1ccc2cc(C(=O)Nc3ccccc3)[nH]c2c1 | 898 s |
| Cc1cccc(C)c1OCC(N)C(C)C (centres undefined) | 728 s |
| CCOC(=O)Cc1csc(NC(=O)CSc2nc(C)cc(C)n2)n1 | 728 s |
| CCCCOCc1cc(CN2CCN(C)CC2)c(O)c2ncccc12 | 592 s |
| CCCc1nc(-c2c(C)cc(C)nc2NC(=O)c2ccc(F)c(F)c2)no1 | 947 s |
| Clc1ccccc1-c1csc(Nc2ccccn2)n1 | 960 s |
| CCn1cc(-c2nc(C)c(C(=O)Nc3cc(F)ccc3F)s2)c2cccnc21 | 1070 s |
| Cc1ccc(C(=O)N2CCC(n3nc(-c4ccsc4)ccc3=O)CC2)cc1 | 835 s |
| CCn1c(=O)c(N2CCN(C(=O)Nc3ccccc3Cl)CC2)nc2ccccc21 | 987 s |
| CCC(=O)N1CCCn2nc(-c3ccc(F)cc3)cc2C1 | 741 s |

| Structure (SMILES) | RP-LC retention time |
| --- | --- |
| COc1ccc(C(CC(=O)N2CCN(C)CC2)N2Cc3ccccc3C2=O)cc1OC (centres undefined) | 609 s |
| O=C(NCCN1CCOCC1)c1nc(-c2ccnc(N3CCCCCC3)c2)no1 | 564 s |
| Cc1ccc(CNC(=O)Cn2c(C)cc(-c3nnc(-c4ccc(F)cc4)o3)c2C)o1 | 919 s |
| CCc1ccccc1NC(=O)Cc1nnc(-c2cnccn2)o1 | 685 s |
| CCc1nc(-c2ccc(-c3noc(CNC(=O)c4ccc(C)cc4)n3)cc2)cs1 | 1040 s |
| CCc1ccc(NC(=O)Nc2cccn3ncnc23)cc1 | 872 s |
| Cc1c(S(=O)(=O)NCc2ccco2)c(C)n(C)c1-c1nnc(C2CCC2)o1 | 853 s |
| COc1ccccc1NC(=O)CN1C(=O)NC2(CCC(C)CC2)C1=O (centres undefined) | 803 s |
| COc1ccc(N2CCN(C(=O)C3CCN(c4nc(NC(C)=O)ns4)CC3)CC2)cc1 | 618 s |
| Cc1nc2ccccn2c(=O)c1Cc1nnc(SCC(=O)NCc2nc3ccccc3[nH]2)n1C | 544 s |
| COc1ncc(C(=O)NCc2ccc(OC)c(OC)c2)cn1 | 638 s |
| CCN1CCN(S(=O)(=O)c2cccc(-c3nnc(-c4ccc(C)cc4)o3)c2)CC1 | 682 s |
| O=C(NC1CCN(c2cc(-c3ccc(F)cc3)[nH]n2)C1)c1ccccc1F (centres undefined) | 714 s |
| O=C(O)C1CCN(c2nc3ccc(-c4ccc(F)cc4)nc3s2)CC1 | 902 s |
| O=C(NCC(O)c1ccc(C(F)(F)F)cc1)C1(c2ccccc2)CCOCC1 (centres undefined) | 785 s |
| COc1ccc2sc(N(CCN(C)C)C(=O)Cc3ccccc3)nc2c1 | 601 s |
| CC(C)C(=O)N1CCc2c(c(C(=O)N3CCC(C(=O)NCc4ccc(F)cc4)CC3)nn2C)C1 | 675 s |
| O=C(c1ccco1)N1CCN(c2ccc3cc(S(=O)(=O)N4CCOCC4)ccc3n2)CC1 | 661 s |
| Cc1cc(C)n2nc(SCC(=O)N(C)Cc3ccccc3)nc2n1 | 710 s |
| COc1ccc(CSc2nccc3c2ccn3CC(=O)NCc2ccc(C)o2)cc1 | 725 s |
| COC1C(=O)N(c2cccc(F)c2)C12CCN(Cc1cn(C)c3ccccc13)CC2 (centres undefined) | 751 s |
| COc1cc(NC(=O)CN2C(=O)CC(c3ccccc3)=Nc3ccccc32)cc(OC)c1 | 973 s |
| CCOc1cccc(-c2noc(Cn3cnc4c(nnn4-c4ccccc4OC)c3=O)n2)c1 | 979 s |

| Structure (SMILES) | RP-LC retention time |
| --- | --- |
| O=C(Cn1cnc2nc(N3CCOCC3)ncc2c1=O)Nc1ccc2c(c1)OCCO2 | 658 s |
| Cc1ccc(C(CC(=O)NCCCN2CCCC2=O)N2Cc3ccccc3C2=O)cc1 (centres undefined) | 685 s |
| Cc1cc(C)cc(NS(=O)(=O)c2ccc3c(c2)C(=O)N(C)c2ncccc2O3)c1 | 1000 s |
| O=C1CCc2cc(NC(=O)c3cncc(Br)c3)ccc2N1 | 649 s |
| CCOc1ccc(/C=C/c2nn3c(-c4cccnc4)nnc3s2)cc1 | 951 s |
| CC(C)Cn1c(-c2ccccc2)nc2ccccc21 | 675 s |
| O=C1NCCOCCN(C(=O)Nc2ccc3c(c2)OCCO3)[C@@H]2CCCC[C@H]12 | 722 s |
| O=C(NCCCN1CCCCC1)c1ccc2ccnc(N3CCN(c4ccc(Cl)cc4)CC3)c2c1 | 645 s |
| CCN1C(=O)NC(c2ccccc2Cl)C2=C1CN(C(C(=O)N1CCCC1)C(C)C)C2=O (centres undefined) | 680 s |
| CC(C)n1c(N2CCN(C(=O)c3ccc(F)cc3)CC2)cc(=O)n(C(C)C)c1=O | 792 s |
| O=C(Cn1c(=O)c2cccn2c2ccccc21)NCCCN1CCCCC1 | 595 s |
| CC(=O)Nc1ccc(C(=O)NC2CCN(c3cc(-c4ccccc4)[nH]n3)C2)cc1 (centres undefined) | 626 s |
| CSc1ccccc1NC(=O)Cc1csc(NC(=O)c2ncccn2)n1 | 657 s |
| CNC(=O)C1CN(S(=O)(=O)c2cccc(F)c2)CC12CCCC2 (centres undefined) | 778 s |
| CCN1C(=O)C(C(=O)Nc2cccc(C)c2)C2CC1(C)Oc1ccccc12 (centres undefined) | 1060 s |
| O=C1N(c2ccc(F)cc2)c2ncccc2S(=O)(=O)N1Cc1ccccc1F | 1040 s |
| COc1cc(OC)c(NC(=O)Nc2c(-c3ccc(C)cc3)nc3ccccn23)cc1Cl | 721 s |
| COc1cc(NC(=O)CSC2CCc3ccccc3NC2=O)cc(OC)c1OC (centres undefined) | 719 s |
| CCc1cc(C(=O)NCCN2CCOCC2)nc2cc(-c3cccs3)nn12 | 670 s |
| CC(C)c1noc(-c2cc(=O)n(CC(=O)NCc3cccc(Cl)c3)c3ccccc23)n1 | 1030 s |
